Measured values taken from patent US12240851B1, “Pyrido[3′,4′:4,5]pyrrolo[3,2-c]naphthyridine compounds as CK2 inhibitors” (KING FAISAL UNIVERSITY, priority 2023, dated 2025).

What was measured:
PC3 (prostate) = experiment: In vitro cytotoxic activity assay (MTT), PC3; assay type: cell-based; conditions: Homo sapiens, 96 hours exposure, read-out: IC50, 50% inhibition of cell proliferation
Description: (§1) Compounds 1-15 were screened for their in vitro cytotoxic activity utilizing a 3-(4,5-dimethyl-thiazol-2-yl)-2,5-diphenyltetrazolium bromide (MTT) assay against selected cancer human cell lines consisting of PC3 (prostate), HCT116 (colon), A375 (melanoma), H1299 (lung), MIAPaCa-2 (pancreas), HL60 (leukemia), MCF7 (breast), MDA-MB-231 (breast) (T. Mosmann, J. Immunol. Meth., 1983, 65, 55-63). The cells were cultured at 37° C. in RMPI1640 medium supplemented with 10% fetal bovine serum, 50 IU/mL penicillin, and 50 µg/mL streptomycin in a 5% CO2 incubator. All cells were sub-cultured 3 times/week by trypsinisation. Viable cells were seeded and allowed to adhere for 12 h before a test drug was added in 96-well plates at an initial density of 1.0×10^5 cells/mL. Tumour cell lines were separately exposed to various concentrations of the tested compounds followed by incubation at a temperature of 37° C. during 96 h inside a medium of fresh RMPI 1640. Cells were subsequently incubated at 37° C. using MTT at 0.5 mg/mL during 4 h. After removal of supernatant, formazan crystals were dissolved in isopropanol and the optical density was measured at 570 nm. CX-4945 was used as a positive control.

HCT116 (colon) = experiment: In vitro cytotoxic activity assay (MTT), HCT116; assay type: cell-based; conditions: Homo sapiens, HCT-116, 96 hours exposure, read-out: IC50, 50% inhibition of cell proliferation
Description: as §1

A375 (melanoma) = experiment: In vitro cytotoxic activity assay (MTT), A375; assay type: cell-based; conditions: Homo sapiens, A-375, 96 hours exposure, read-out: IC50, 50% inhibition of cell proliferation
Description: as §1

H1299 (lung) = experiment: In vitro cytotoxic activity assay (MTT), H1299; assay type: cell-based; conditions: Homo sapiens, NCI-H1299, 96 hours exposure, read-out: IC50, 50% inhibition of cell proliferation
Description: as §1

MIAPaCa-2 (pancreas) = experiment: In vitro cytotoxic activity assay (MTT), MIAPaCa-2; assay type: cell-based; conditions: Homo sapiens, MIA PaCa-2, 96 hours exposure, read-out: IC50, 50% inhibition of cell proliferation
Description: as §1

HL60 (leukemia) = experiment: In vitro cytotoxic activity assay (MTT), HL60; assay type: cell-based; conditions: Homo sapiens, HL-60, 96 hours exposure, read-out: IC50, 50% inhibition of cell proliferation
Description: as §1

MCF7 (breast) = experiment: In vitro cytotoxic activity assay (MTT), MCF7; assay type: cell-based; conditions: Homo sapiens, 96 hours exposure, read-out: IC50, 50% inhibition of cell proliferation
Description: as §1

MDA-MB-231 (breast) = experiment: In vitro cytotoxic activity assay (MTT), MDA-MB-231; assay type: cell-based; conditions: Homo sapiens, 96 hours exposure, read-out: IC50, 50% inhibition of cell proliferation
Description: as §1

[1] = target: T1, recombinant human CK2 (RRββ-holoenzyme) (Homo sapiens, UniProt P68400); experiment: CK2 Kinase Assay (33P-ATP, filter plate); assay type: biochemical; conditions: final ATP concentration 15 μM, 10 min at 30° C.; read-out: protein kinase CK2 IC50
T1 construct: purchased Millipore
Description: CK2 Kinase Assay was conducted using the protocol as described in Pierre F. et al; J. Med. Chem. 2011, 54, 635-654. The tested compounds in aqueous solution were added at a volume of 10 μL to a reaction mixture comprising 10 μL of assay dilution buffer (ADB; 20 mM MOPS, pH 7.2, 25 mM β-glycerol phosphate, 5 mM EGTA, 1 mM sodium orthovanadate, and 1 mM dithiothreitol), 10 μL of substrate peptide (RRRDDDSDDD, dissolved in ADB at a concentration of 1 mM), 10 μL of recombinant human CK2 (RRββ-holoenzyme, 25 ng dissolved in ADB; Millipore). Reactions were initiated by the addition of 10 μL of ATP solution (90% 75 mMMgCl2, 75 μM ATP (final ATP concentration:15 μM) dissolved in ADB; 10% [γ-33P] ATP (stock 1mCi/100 μL; 3000 Ci/mmol (Perkin-Elmer) and maintained for 10 min at 30° C. The reactions were quenched with 100 μL of 0.75% phosphoric acid and then transferred to and filtered through a phosphor cellulose filter plate (Millipore). After washing each well five times with 0.75% phosphoric acid, the plate was dried under vacuum for 5 min and, following the addition of 15 μL of scintillation fluid to each well, the residual radioactivity was measured using a Wallac […]. The IC50 values were derived from eight concentrations of test inhibitors.

T1 sequence (P68400 whole entry): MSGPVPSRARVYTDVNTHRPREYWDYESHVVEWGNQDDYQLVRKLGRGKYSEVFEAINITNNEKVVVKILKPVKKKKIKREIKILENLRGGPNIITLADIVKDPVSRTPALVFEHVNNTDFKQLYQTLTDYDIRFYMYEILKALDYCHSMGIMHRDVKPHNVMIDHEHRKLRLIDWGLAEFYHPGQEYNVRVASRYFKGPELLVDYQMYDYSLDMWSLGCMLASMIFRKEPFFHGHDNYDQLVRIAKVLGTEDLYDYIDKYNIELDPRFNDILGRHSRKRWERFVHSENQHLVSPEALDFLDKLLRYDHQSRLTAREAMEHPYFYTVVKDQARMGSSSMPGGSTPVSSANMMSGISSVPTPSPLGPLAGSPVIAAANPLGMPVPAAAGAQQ
T1 sequence (P67870 whole entry partner): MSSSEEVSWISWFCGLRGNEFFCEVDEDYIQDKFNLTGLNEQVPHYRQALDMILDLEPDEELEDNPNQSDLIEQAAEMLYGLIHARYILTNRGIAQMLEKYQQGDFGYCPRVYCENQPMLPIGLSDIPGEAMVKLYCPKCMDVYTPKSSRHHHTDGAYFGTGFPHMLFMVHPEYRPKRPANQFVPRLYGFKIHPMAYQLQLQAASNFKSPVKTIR

IC50 [1]: 0.021 µM
SMILES: Clc1cccc(Nc2nc3c4cnccc4[nH]c3c3cnccc23)c1 [Compound (1), N-(3-chlorophenyl)-11H-pyrido[3′,4′:4,5]pyrrolo[3,2-c][2,6]naphthyridin-5-amine]
IC50 (PC3 (prostate)): 0.8 µM
IC50 (HCT116 (colon)): 1.5 µM
IC50 (A375 (melanoma)): 4 µM
IC50 (H1299 (lung)): 1.1 µM
IC50 (MIAPaCa-2 (pancreas)): 1.4 µM
IC50 (HL60 (leukemia)): 3.2 µM
IC50 (MCF7 (breast)): 2.5 µM
IC50 (MDA-MB-231 (breast)): 2.9 µM
